Reference: the CheMixHub viscosity set
± gives the uncertainty stated by the source.

Assay: xn = mol fraction of the nth substance listed

C1CCC2CCCCC2C1 (configuration not stated) + OCC1CC1
viscosity [mPa·s], 101 kPa
Conditions	x2 = 0.0988	x2 = 0.2017	x2 = 0.2994	x2 = 0.4008	x2 = 0.5004	x2 = 0.6011	x2 = 0.7007	x2 = 0.8009	x2 = 0.8994
293.15 K	2.377 ± 0.05	2.408 ± 0.051	2.471 ± 0.053	2.554 ± 0.054	2.676 ± 0.057	2.846 ± 0.061	3.024 ± 0.065	3.244 ± 0.069	3.581 ± 0.077
298.15 K	2.149 ± 0.046	2.17 ± 0.046	2.217 ± 0.047	2.282 ± 0.049	2.378 ± 0.051	2.517 ± 0.054	2.662 ± 0.057	2.84 ± 0.061	3.12 ± 0.067
303.15 K	1.952 ± 0.041	1.965 ± 0.042	2.001 ± 0.043	2.05 ± 0.044	2.126 ± 0.045	2.24 ± 0.048	2.356 ± 0.05	2.502 ± 0.053	2.736 ± 0.059
308.15 K	1.781 ± 0.038	1.787 ± 0.038	1.814 ± 0.039	1.85 ± 0.039	1.91 ± 0.041	2.003 ± 0.043	2.097 ± 0.045	2.215 ± 0.047	2.411 ± 0.052
313.15 K	1.63 ± 0.035	1.633 ± 0.035	1.651 ± 0.035	1.678 ± 0.036	1.724 ± 0.037	1.799 ± 0.038	1.874 ± 0.04	1.971 ± 0.042	2.135 ± 0.046
318.15 K	1.499 ± 0.032	1.497 ± 0.032	1.509 ± 0.032	1.527 ± 0.033	1.562 ± 0.033	1.623 ± 0.035	1.683 ± 0.036	1.762 ± 0.038	1.899 ± 0.041
323.15 K	1.382 ± 0.029	1.358 ± 0.029	1.383 ± 0.029	1.396 ± 0.03	1.421 ± 0.03	1.47 ± 0.031	1.518 ± 0.032	1.581 ± 0.034	1.697 ± 0.036

CC12CC3CC(C)(C1)CC(C)(C3)C2 + OCC1CCCCC1
Conditions	viscosity [mPa·s]
303.15 K, 100 kPa, x2 = 0.801	10.65 ± 0.17

CCCCCO + OCCO
293.15 K, 101.33 kPa
Conditions	viscosity [mPa·s]
x2 = 0.0857	4.274 ± 0.037
x2 = 0.1963	4.916 ± 0.042
x2 = 0.2991	5.66 ± 0.045
x2 = 0.3697	6.324 ± 0.049
x2 = 0.4694	7.484 ± 0.056
x2 = 0.5395	8.676 ± 0.062
x2 = 0.5964	9.655 ± 0.068
x2 = 0.713	12.32 ± 0.082
x2 = 0.7884	14.03 ± 0.091
x2 = 0.8506	15.9 ± 0.1
x2 = 0.9407	18.94 ± 0.12

O=[N+]([O-])c1ccccc1 + OCCOCCO
viscosity [mPa·s], 101 kPa
Conditions	298.15 K	308.15 K
x2 = 0.0441	1.987 ± 0.093	1.691 ± 0.081
x2 = 0.1493	2.565 ± 0.12	2.115 ± 0.099
x2 = 0.2505	3.312 ± 0.15	2.642 ± 0.12
x2 = 0.3502	4.303 ± 0.19	3.31 ± 0.15
x2 = 0.4438	5.55 ± 0.24	4.117 ± 0.18
x2 = 0.4934	6.373 ± 0.26	4.632 ± 0.2
x2 = 0.5487	7.457 ± 0.3	5.293 ± 0.23
x2 = 0.6506	10.04 ± 0.38	6.804 ± 0.28
x2 = 0.751	13.58 ± 0.49	8.774 ± 0.34
x2 = 0.8498	18.47 ± 0.64	11.34 ± 0.42
x2 = 0.9429	24.89 ± 0.84	14.54 ± 0.52

O=[N+]([O-])c1ccccc1 + OCCOCCOCCO
viscosity [mPa·s], 101 kPa
Conditions	298.15 K	308.15 K
x2 = 0.0465	2.086 ± 0.098	1.759 ± 0.083
x2 = 0.1495	2.91 ± 0.13	2.342 ± 0.11
x2 = 0.2501	3.999 ± 0.18	3.087 ± 0.14
x2 = 0.3505	5.455 ± 0.23	4.049 ± 0.18
x2 = 0.4432	7.222 ± 0.29	5.184 ± 0.23
x2 = 0.4957	8.443 ± 0.33	5.954 ± 0.25
x2 = 0.5486	9.864 ± 0.37	6.838 ± 0.28
x2 = 0.6486	13.17 ± 0.47	8.857 ± 0.34
x2 = 0.7501	17.53 ± 0.61	11.47 ± 0.42
x2 = 0.8489	23 ± 0.78	14.69 ± 0.52
x2 = 0.94	29.37 ± 0.98	18.4 ± 0.64

CC12CC3CC(C)(C1)CC(C)(C3)C2 + c1ccc2c(c1)CCCC2
viscosity [mPa·s], 100 kPa
Conditions	x1 = 0.1006	x1 = 0.2003	x1 = 0.2993	x1 = 0.4002	x1 = 0.4993	x1 = 0.6013	x1 = 0.7012	x1 = 0.8008	x1 = 0.9005
293.15 K	2.14 ± 0.09	2.1 ± 0.09	2.1 ± 0.09	2.12 ± 0.09	2.16 ± 0.09	2.22 ± 0.09	2.29 ± 0.09	2.38 ± 0.1	2.5 ± 0.1
298.15 K	1.93 ± 0.08	1.9 ± 0.08	1.9 ± 0.08	1.92 ± 0.08	1.95 ± 0.08	2 ± 0.08	2.07 ± 0.08	2.15 ± 0.09	2.25 ± 0.09
303.15 K	1.76 ± 0.07	1.73 ± 0.07	1.73 ± 0.07	1.75 ± 0.07	1.78 ± 0.07	1.82 ± 0.07	1.88 ± 0.08	1.95 ± 0.08	2.04 ± 0.08
308.15 K	1.61 ± 0.07	1.59 ± 0.07	1.59 ± 0.07	1.6 ± 0.07	1.62 ± 0.07	1.67 ± 0.07	1.72 ± 0.07	1.78 ± 0.07	1.85 ± 0.08
313.15 K	1.48 ± 0.06	1.46 ± 0.06	1.46 ± 0.06	1.47 ± 0.06	1.49 ± 0.06	1.53 ± 0.06	1.57 ± 0.06	1.63 ± 0.07	1.7 ± 0.07
318.15 K	1.37 ± 0.06	1.35 ± 0.06	1.35 ± 0.06	1.36 ± 0.06	1.38 ± 0.06	1.41 ± 0.06	1.45 ± 0.06	1.5 ± 0.06	1.56 ± 0.06
323.15 K	1.26 ± 0.05	1.25 ± 0.05	1.25 ± 0.05	1.26 ± 0.05	1.28 ± 0.05	1.31 ± 0.05	1.34 ± 0.05	1.39 ± 0.06	1.44 ± 0.06

CCCCCO + c1ccccc1
Conditions	viscosity [mPa·s]
293.15 K, 101.33 kPa, x1 = 0.0659	0.671 ± 0.009
293.15 K, 101.33 kPa, x1 = 0.1351	0.715 ± 0.009
293.15 K, 101.33 kPa, x1 = 0.218	0.791 ± 0.01
293.15 K, 101.33 kPa, x1 = 0.2928	0.876 ± 0.011
293.15 K, 101.33 kPa, x1 = 0.4304	1.127 ± 0.014
293.15 K, 101.33 kPa, x1 = 0.5061	1.307 ± 0.016
293.15 K, 101.33 kPa, x1 = 0.58	1.532 ± 0.018
293.15 K, 101.33 kPa, x1 = 0.6971	2.016 ± 0.024
293.15 K, 101.33 kPa, x1 = 0.729	2.159 ± 0.025
293.15 K, 101.33 kPa, x1 = 0.8032	2.568 ± 0.029
293.15 K, 101.33 kPa, x1 = 0.8704	3.014 ± 0.034
293.15 K, 101.33 kPa, x1 = 0.9454	3.594 ± 0.04
298.15 K, 101 kPa, x1 = 0.04	0.616 ± 0.016
298.15 K, 101 kPa, x1 = 0.09	0.641 ± 0.017
298.15 K, 101 kPa, x1 = 0.14	0.669 ± 0.018
298.15 K, 101 kPa, x1 = 0.18	0.709 ± 0.019
298.15 K, 101 kPa, x1 = 0.37	0.936 ± 0.025
298.15 K, 101 kPa, x1 = 0.47	1.132 ± 0.03
298.15 K, 101 kPa, x1 = 0.57	1.36 ± 0.036
298.15 K, 101 kPa, x1 = 0.78	1.963 ± 0.051
